Experimental data published in patent publication US20010018090A1, “Calorie reducing agent” (priority 1999, published 2001).
Values after ≈ are worked out from the molar mass of the structure shown.

Molecular target: T1, α-glucosidase (sucrase) existing in small intestine of rat (Rattus norvegicus, UniProt P23739)
T1 construct: the supernatant liquid thereof was used as an enzyme solution (sucrase); from tissue; host or cells: rat small intestinal mucous membrane (brush border membrane)
Test: Inhibition of rat small intestinal α-glucosidase (sucrase), IC50
Format: biochemical
Settings: partially purified rat small intestinal sucrase, 5 mM sucrose, 37° C. for 60 minutes
Description: As to the α-glucosidase, a sucrase solution which was partially purified from small intestinal mucous membrane (brush edge membrane) of rat was used. Namely, the mucous membrane of small intestine was exfoliated using a slide glass, homogenized at 4° C. for 5 minutes with a phosphate buffer and subjected to an ultrasonic treatment for 5 minutes. The resulting solution of smashed mucous membrane was centrifuged and the supernatant liquid thereof was used as an enzyme solution (sucrase). A 5 mM sucrose solution was used as a substrate, an enzyme solution and a predetermined amount of a 1-deoxynojirimycin solution or a mulberry extract were added and the reaction was carried out at 37° C. for 60 minutes and then stopped by a treatment at 100° C. for 5 minutes. Amount of glucose in the reaction solution was measured by a biochemical automatic analyzer.

T1 sequence (P23739 whole entry): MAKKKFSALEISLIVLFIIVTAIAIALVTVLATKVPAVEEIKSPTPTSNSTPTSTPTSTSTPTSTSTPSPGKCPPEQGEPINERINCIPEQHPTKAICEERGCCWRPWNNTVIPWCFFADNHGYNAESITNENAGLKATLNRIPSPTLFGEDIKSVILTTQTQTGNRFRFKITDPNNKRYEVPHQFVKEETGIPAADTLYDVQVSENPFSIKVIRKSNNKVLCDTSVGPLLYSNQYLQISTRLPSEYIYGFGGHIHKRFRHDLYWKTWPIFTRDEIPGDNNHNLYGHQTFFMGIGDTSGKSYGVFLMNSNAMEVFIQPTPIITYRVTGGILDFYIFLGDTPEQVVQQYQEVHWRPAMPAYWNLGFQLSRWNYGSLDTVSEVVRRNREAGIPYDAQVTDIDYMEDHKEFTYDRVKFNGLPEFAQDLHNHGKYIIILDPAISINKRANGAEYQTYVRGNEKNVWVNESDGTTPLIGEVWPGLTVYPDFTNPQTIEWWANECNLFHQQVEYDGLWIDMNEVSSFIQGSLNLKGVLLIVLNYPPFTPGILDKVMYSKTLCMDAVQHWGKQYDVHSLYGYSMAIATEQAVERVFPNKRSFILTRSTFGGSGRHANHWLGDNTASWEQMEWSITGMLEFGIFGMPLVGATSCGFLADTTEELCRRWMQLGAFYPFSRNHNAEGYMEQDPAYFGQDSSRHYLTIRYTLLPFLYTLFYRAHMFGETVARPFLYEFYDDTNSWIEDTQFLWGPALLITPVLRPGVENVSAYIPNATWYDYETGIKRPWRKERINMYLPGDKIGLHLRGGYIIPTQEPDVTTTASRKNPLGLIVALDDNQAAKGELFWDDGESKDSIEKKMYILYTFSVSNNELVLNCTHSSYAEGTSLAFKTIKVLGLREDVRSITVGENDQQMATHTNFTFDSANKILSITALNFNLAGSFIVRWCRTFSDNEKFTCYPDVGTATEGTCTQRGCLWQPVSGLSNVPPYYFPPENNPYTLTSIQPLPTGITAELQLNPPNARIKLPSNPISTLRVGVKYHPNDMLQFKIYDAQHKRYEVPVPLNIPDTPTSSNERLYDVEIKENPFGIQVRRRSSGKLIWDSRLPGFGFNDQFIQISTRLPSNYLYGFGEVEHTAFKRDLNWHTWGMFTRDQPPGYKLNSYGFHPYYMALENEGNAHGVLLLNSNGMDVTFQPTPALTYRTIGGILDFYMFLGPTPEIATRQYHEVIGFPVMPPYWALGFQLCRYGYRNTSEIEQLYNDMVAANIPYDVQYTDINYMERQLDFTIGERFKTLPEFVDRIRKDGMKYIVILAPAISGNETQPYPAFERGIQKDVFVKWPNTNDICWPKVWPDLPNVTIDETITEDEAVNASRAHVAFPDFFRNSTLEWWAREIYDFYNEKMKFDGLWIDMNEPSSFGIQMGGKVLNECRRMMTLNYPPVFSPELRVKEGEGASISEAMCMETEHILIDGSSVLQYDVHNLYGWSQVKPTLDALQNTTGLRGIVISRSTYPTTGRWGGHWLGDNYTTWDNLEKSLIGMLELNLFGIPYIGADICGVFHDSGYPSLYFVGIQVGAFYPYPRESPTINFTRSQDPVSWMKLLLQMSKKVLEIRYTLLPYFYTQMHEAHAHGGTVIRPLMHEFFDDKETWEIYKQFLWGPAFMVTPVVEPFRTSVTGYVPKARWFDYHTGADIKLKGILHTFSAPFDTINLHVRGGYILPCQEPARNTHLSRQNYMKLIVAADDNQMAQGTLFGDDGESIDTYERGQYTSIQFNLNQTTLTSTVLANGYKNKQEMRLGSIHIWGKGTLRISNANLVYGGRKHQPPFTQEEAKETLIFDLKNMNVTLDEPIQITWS

IC50 to Sucrase: 0.05 µg/mL (≈ 0.306 µM)
SMILES: OC[C@H]1NC[C@H](O)[C@@H](O)[C@@H]1O [1-Deoxynojirimycin, 1-deoxynojirimycin]
